Measured values taken from patent US20210292741A1, “COMBINATION THERAPEUTICS USING TUMOR TREATING FIELDS (TTFIELDS)” (THE BOARD OF REGENTS OF THE UNIVERSITY OF TEXAS SYSTEM, priority 2020, published 2021).

Tested on: H1299, A549, H157, and H4006 cells
Test: clonogenic survival assay, TTFields combined with E2F and CDK 4/6 inhibitors
Type: cell-based, Human
Conditions: single inhibitor plus TTFields, Highest Single Agent approach
Procedure: FIGS. 6A-6B provide the results of exemplary clonogenic survival assays in four lung cancer cells lines—H1299, A549, H157, and H4006 cells—under various conditions testing combinations of TTFields with agents that dysregulate E2F signaling or CDK4/6 signaling at 24, 48, and 72 hours. […] Cell survival after increased exposure to TTFields alone, or in combination with a E2F inhibitor, a CDK 4/6 inhibitor or to a combination of E2F inhibitor and CDK 4/6 inhibitor is shown.
Human NSCLC cell lines (H157, H4006, A549, and H1299) were purchased from American Tissue Culture Collection. All these cell lines were grown in RPMI medium supplemented with 10% (v/v) fetal bovine serum (Atlanta Biologicals, Flowery Branch, Ga., USA) and penicillin/streptavidin (final concentration 50 μg/ml; Sigma-Aldrich, St. Louis, Mo., U29SA). All cells were grown at 37° C. in a humidified incubator constantly supplied with 5% CO2.
The inovitro system (NovoCure Ltd, Haifa, Israel) was used to generate TTFields that use two pairs of electrodes printed perpendicularly on the outer walls of a Petri dish composed of high dielectric constant ceramic (lead magnesium niobate-lead titanite (PMN-PT)). […] The temperature was measured by 2 thermistors (Omega Engineering, Stamford, Conn., USA) attached to the ceramic walls. […]

With `CCOc1ccc(C(Nc2ccccn2)c2ccc3ccc(C)nc3c2O)cc1C` (stereo not shown) [HLM006474] the “cell killing in combination with TTFields as compared to TTFields alone” value was “enhanced cell killing synergistically”.
